{
  "source": "ChEMBL document CHEMBL5465560",
  "about": "“Selectivity Literature for EUbOPEN Chemogenomic Library” (2024)",
  "key": {"[1]": {"molecular_target": "Mitogen-activated protein kinase 3 (Homo sapiens, UniProt P27361)", "sequence (P27361 whole entry)": "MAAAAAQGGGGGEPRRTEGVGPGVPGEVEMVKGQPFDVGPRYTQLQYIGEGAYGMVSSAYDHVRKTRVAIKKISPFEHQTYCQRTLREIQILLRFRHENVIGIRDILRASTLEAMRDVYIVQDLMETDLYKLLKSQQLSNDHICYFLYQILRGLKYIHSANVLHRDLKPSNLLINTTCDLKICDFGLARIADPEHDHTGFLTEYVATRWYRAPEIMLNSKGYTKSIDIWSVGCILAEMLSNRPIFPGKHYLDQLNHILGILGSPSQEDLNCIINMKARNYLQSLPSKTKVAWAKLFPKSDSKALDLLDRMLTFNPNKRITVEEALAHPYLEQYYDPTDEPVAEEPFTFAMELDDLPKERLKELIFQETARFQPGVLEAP", "assay": "Selectivity interaction (Kinase panel (KiNativ target engagement assay in Jurkat cells)) EUB0001635a MAPK3", "type": "cell-based", "conditions": "Selectivity number of off-targets 0.0, Selectivity number of targets 233.0, Source Knowledge https://www.sciencedirect.com/science/article/pii/S2451945619300674?via%3Dihub, at 1 µM"}, "[2]": {"molecular_target": "Serine/threonine-protein kinase PLK3 (Homo sapiens, UniProt Q9H4B4)", "sequence (Q9H4B4 whole entry, looked up)": "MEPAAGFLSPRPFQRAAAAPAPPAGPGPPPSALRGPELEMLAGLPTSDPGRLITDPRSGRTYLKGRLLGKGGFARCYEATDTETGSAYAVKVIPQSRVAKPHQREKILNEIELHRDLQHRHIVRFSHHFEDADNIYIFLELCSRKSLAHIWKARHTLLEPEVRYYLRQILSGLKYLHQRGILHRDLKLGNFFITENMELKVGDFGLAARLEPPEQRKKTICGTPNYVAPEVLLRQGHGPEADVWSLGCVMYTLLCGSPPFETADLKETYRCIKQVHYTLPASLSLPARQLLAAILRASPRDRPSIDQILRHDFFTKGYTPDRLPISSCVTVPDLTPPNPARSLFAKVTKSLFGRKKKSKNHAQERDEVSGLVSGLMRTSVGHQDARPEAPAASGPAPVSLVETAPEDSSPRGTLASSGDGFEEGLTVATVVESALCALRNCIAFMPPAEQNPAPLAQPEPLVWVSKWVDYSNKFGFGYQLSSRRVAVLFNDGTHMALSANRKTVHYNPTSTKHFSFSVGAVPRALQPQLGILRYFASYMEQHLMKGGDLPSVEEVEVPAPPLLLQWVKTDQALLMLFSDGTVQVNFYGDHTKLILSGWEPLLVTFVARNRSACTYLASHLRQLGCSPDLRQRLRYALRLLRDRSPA", "assay": "Selectivity interaction (KinomeScan (DiscoverX)) EUB0000229b PLK3", "conditions": "at 10 µM"}, "Aurora kinase B": {"molecular_target": "Aurora kinase B (Homo sapiens, UniProt Q96GD4)", "sequence (Q96GD4 whole entry)": "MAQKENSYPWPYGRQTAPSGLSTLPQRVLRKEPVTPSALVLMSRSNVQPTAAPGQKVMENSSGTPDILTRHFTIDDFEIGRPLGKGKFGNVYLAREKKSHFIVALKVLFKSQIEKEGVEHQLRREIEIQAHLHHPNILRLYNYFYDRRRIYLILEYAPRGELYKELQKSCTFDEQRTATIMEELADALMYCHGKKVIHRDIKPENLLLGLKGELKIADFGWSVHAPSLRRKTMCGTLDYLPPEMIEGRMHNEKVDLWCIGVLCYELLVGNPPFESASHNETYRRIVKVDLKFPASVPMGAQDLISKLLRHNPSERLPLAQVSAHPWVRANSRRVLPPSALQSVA", "assay": "Selectivity interaction (KinomeScan (DiscoverX)) EUB0000045b AURKB"}, "[3]": {"molecular_target": "Atypical kinase COQ8A, mitochondrial (Homo sapiens, UniProt Q8NI60)", "sequence (Q8NI60 163-647 limits assumed)": "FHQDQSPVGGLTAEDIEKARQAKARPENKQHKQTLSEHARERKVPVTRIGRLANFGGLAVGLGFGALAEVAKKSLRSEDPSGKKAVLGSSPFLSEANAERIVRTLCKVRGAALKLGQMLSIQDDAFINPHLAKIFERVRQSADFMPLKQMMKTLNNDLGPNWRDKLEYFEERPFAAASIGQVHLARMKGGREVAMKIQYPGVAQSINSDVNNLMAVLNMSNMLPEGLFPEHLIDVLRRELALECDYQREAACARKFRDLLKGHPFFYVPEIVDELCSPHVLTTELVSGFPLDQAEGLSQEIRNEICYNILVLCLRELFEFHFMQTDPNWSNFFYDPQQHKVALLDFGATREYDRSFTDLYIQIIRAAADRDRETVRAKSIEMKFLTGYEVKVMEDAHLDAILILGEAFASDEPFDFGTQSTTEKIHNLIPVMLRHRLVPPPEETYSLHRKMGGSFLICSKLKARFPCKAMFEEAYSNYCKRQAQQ", "assay": "Selectivity interaction (KinomeScan (DiscoverX)) EUB0001079a ADCK3", "conditions": "at 1 µM"}, "[4]": {"molecular_target": "T1, Serine/threonine-protein kinase 4 (Homo sapiens) (UniProt Q13043)", "T1 sequence (whole entry)": "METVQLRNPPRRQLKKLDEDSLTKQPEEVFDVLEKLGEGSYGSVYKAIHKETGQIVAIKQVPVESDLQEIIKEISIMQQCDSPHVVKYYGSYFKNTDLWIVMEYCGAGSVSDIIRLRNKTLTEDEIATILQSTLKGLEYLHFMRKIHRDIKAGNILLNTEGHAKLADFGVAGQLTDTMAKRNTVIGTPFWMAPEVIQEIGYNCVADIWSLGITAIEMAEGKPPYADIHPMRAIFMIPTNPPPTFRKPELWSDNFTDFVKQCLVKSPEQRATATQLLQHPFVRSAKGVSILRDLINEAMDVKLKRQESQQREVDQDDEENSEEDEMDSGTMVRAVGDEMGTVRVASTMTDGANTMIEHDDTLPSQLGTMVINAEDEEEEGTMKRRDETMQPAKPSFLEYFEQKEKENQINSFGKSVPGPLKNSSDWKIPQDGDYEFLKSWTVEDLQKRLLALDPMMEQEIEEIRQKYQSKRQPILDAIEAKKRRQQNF", "assay": "Selectivity interaction (Kinase panel (Z-LYTE Assay)) EUB0001632a STK4", "conditions": "at 10 µM"}, "[5]": {"molecular_target": "T2, Mitogen-activated protein kinase 15 (Homo sapiens) (UniProt Q8TD08)", "T2 sequence (whole entry)": "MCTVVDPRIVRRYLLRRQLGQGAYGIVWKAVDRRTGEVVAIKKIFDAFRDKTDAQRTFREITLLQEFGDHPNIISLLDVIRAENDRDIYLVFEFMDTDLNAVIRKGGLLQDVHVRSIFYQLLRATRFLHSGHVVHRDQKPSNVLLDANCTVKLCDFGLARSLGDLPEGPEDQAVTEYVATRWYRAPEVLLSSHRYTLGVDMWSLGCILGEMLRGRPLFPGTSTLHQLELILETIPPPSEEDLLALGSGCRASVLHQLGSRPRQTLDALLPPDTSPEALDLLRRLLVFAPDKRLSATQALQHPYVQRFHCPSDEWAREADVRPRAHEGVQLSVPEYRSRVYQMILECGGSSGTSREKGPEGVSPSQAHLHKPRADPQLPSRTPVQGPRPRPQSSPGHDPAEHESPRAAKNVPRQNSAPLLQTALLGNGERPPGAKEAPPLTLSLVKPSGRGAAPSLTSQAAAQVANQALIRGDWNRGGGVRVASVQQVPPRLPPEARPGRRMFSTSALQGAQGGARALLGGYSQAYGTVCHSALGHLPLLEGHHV", "conditions": "at 10 µM"}, "[6]": {"molecular_target": "T3, Bone morphogenetic protein receptor type-2 (Homo sapiens) (UniProt Q13873)", "T3 sequence (whole entry)": "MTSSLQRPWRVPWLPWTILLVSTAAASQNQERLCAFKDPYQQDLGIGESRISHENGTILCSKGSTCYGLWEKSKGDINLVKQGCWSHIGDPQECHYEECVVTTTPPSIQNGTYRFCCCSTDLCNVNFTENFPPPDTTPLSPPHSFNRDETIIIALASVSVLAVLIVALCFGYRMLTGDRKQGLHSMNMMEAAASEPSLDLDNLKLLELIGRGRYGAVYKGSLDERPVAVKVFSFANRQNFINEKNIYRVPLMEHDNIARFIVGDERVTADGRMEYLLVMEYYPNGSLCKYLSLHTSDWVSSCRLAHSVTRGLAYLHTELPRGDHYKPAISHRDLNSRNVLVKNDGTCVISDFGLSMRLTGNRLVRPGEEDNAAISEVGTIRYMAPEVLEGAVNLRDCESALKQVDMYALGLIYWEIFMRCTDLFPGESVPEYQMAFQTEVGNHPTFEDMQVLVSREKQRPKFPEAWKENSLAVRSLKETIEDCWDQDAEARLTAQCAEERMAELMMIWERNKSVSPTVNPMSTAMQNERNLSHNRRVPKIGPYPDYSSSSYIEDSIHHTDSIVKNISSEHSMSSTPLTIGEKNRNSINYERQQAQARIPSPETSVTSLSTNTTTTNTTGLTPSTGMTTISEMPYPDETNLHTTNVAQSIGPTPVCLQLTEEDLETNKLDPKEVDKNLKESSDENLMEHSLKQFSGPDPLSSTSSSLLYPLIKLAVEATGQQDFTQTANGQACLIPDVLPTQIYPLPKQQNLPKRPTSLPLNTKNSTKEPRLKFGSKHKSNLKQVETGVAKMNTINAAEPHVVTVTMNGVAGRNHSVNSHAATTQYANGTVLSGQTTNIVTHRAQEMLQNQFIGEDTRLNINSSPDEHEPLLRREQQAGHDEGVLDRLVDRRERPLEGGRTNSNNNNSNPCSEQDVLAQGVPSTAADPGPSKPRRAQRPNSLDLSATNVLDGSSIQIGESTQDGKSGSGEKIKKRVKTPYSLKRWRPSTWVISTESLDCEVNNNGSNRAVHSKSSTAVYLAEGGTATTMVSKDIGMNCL", "assay": "Selectivity interaction (KinomeScan (DiscoverX)) EUB0001049a BMPR2", "conditions": "at 1 µM"}, "[7]": {"molecular_target": "Serine/threonine-protein kinase mTOR (Homo sapiens, UniProt P42345)", "assay": "Selectivity interaction (Kinase panel (antibody-dependent TR-FRET assay, phosphorylation of 4EBP-1 catalyzed by recombinant mTOR)) EUB0000877a MTOR"}, "[8]": {"molecular_target": "Ephrin type-A receptor 2 (Homo sapiens) (UniProt P29317)", "sequence (P29317 whole entry)": "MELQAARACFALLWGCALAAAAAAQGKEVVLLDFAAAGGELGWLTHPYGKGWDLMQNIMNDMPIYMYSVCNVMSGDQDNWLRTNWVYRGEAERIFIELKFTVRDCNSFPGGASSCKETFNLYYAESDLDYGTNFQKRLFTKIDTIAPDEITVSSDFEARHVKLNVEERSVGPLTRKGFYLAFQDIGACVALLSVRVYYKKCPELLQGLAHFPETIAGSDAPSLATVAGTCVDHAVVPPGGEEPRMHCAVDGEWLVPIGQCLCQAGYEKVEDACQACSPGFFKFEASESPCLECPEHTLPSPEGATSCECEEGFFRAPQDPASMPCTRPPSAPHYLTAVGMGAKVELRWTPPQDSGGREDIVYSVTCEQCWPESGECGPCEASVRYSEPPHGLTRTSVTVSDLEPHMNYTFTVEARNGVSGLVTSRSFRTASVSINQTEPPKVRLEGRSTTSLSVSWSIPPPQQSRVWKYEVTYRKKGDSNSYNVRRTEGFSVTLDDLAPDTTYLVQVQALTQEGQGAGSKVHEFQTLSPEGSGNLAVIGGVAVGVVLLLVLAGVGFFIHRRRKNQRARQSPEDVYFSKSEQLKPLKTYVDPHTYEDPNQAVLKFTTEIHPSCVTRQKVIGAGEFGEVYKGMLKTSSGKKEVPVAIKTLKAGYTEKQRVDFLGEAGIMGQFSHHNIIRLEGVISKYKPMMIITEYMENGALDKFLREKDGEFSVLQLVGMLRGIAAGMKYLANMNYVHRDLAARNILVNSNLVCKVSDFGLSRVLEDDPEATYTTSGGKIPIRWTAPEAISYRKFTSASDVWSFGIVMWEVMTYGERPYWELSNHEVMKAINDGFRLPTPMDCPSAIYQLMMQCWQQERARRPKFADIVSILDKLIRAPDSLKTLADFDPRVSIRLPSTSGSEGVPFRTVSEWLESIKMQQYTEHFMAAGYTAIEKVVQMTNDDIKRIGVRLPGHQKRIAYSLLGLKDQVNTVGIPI", "assay": "Selectivity interaction (ProQinase) EUB0000171b EPHA2"}, "[9]": {"molecular_target": "Mitogen-activated protein kinase 9 (Homo sapiens, UniProt P45984)", "sequence (P45984 whole entry, looked up)": "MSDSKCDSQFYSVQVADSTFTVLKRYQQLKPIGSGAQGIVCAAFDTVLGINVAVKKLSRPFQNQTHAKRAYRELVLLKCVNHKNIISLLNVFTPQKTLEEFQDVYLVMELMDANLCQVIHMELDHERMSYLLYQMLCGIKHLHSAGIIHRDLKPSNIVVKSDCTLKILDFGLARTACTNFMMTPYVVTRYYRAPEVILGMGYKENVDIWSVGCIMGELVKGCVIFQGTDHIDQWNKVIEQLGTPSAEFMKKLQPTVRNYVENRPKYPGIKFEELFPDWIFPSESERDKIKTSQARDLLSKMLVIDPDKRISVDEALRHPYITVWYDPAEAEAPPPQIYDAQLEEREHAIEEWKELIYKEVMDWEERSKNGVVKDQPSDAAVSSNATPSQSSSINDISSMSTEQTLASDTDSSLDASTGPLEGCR", "assay": "Selectivity interaction (KinomeScan (DiscoverX)) EUB0000618a MAPK9", "conditions": "at 10 µM"}, "[10]": {"molecular_target": "Mast/stem cell growth factor receptor Kit (Homo sapiens, UniProt P10721)", "sequence (P10721 whole entry)": "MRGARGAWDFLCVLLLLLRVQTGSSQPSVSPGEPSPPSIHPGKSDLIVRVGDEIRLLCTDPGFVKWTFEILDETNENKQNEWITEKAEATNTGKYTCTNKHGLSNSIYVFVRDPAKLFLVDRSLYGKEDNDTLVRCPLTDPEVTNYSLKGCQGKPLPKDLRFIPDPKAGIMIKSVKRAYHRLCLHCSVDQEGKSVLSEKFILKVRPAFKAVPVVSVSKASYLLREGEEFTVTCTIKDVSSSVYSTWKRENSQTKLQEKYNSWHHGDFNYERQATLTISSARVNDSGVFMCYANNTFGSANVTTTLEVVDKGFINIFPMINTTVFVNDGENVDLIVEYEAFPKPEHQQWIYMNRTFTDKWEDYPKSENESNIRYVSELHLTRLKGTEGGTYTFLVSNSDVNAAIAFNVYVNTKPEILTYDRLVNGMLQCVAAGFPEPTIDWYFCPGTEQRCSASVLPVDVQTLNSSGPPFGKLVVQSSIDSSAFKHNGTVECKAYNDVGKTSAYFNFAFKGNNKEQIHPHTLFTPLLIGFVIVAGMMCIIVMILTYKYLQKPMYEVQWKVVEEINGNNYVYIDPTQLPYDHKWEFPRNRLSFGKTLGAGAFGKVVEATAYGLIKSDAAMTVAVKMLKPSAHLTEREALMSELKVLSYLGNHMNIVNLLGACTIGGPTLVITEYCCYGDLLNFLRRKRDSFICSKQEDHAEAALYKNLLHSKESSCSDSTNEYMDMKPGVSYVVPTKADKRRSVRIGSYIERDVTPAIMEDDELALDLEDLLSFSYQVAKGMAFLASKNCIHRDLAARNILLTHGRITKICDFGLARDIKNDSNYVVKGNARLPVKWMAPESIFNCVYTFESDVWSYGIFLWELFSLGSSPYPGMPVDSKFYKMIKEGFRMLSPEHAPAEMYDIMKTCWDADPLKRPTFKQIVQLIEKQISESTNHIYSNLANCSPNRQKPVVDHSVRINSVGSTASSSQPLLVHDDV", "assay": "Selectivity interaction (Ambit KINOMEscan and KiNATiv profiling in Jurkat cells) EUB0000090b KIT", "type": "cell-based", "conditions": "at 1 µM"}},
  "data": [
    {"smiles": "C=CC(=O)Nc1ccc(C(=O)Nc2[nH]nc3c2CN(C(=O)N[C@H](CN(C)C)c2ccccc2)C3(C)C)cc1", "values": [
      {"measurement": "% of engagement", "setting": "[1]", "result": -1.4, "unit": "%"}
    ]},
    {"smiles": "COc1cc(N(C)c2ccnc3ccc(C(F)(F)F)cc23)cc(OC)c1OC", "values": [
      {"measurement": "% binding", "setting": "[2]", "result": 74, "unit": "%"}
    ]},
    {"smiles": "C=CC(=O)Nc1cc(-n2c(=O)ccc3cnc4ccc(-c5ccc(NS(C)(=O)=O)cc5)cc4c32)ccc1C", "values": [
      {"measurement": "% of control", "setting": "Aurora kinase B; at 1 µM", "result": 100, "unit": "%"},
      {"measurement": "% of control", "setting": "Aurora kinase B; at 10 µM", "result": 75, "unit": "%"}
    ]},
    {"smiles": "Nc1cnc(N2CCc3cc(S(=O)(=O)Nc4c(F)cc(Cl)cc4F)cc(N4CCCC4=O)c32)nc1", "note": "[TP-020n]", "values": [
      {"measurement": "% of control", "setting": "[3]", "result": 100, "unit": "%"}
    ]},
    {"smiles": "Cn1cc(-n2cnc3c(NCc4nc5cc(Cl)c(Cl)cc5[nH]4)nc(N4CCOCC4)nc32)cn1", "values": [
      {"measurement": "% of control", "setting": "[4]", "result": -9.12, "unit": "%"}
    ]},
    {"smiles": "Cc1cc([C@@H](C)Nc2ccccc2C(=O)O)c2nc(N3CCOCC3)cc(=O)n2c1", "note": "[AZD-6482]", "values": [
      {"measurement": "% of control", "setting": "[5]", "result": 100, "unit": "%"}
    ]},
    {"smiles": "COc1cc(Nc2nc(C)cc(-c3cnn4nc(OC)ccc34)n2)cc(C(F)(F)F)c1", "values": [
      {"measurement": "% of control", "setting": "[6]", "result": 100, "unit": "%"}
    ]},
    {"smiles": "CCC(=O)N1CC[C@H](Nc2ncnc3c2CN(c2cnc(OC)c(C(F)(F)F)c2)CC3)C1", "note": "[LENIOLISIB]", "values": [
      {"measurement": "IC50", "setting": "[7]", "result": "> 9.1", "unit": "µM"}
    ]},
    {"smiles": "C=CC(=O)Nc1cccc(C(=O)Nc2ccc(Nc3cc(-c4[nH]c(SC)nc4C)ccn3)cc2)c1", "values": [
      {"measurement": "% of control", "setting": "[8]; at 1 µM", "result": 92, "unit": "%"},
      {"measurement": "% of control", "setting": "[8]; at 5 µM", "result": 81, "unit": "%"}
    ]},
    {"smiles": "O[C@H]1CC[C@H](Nc2ncc3nc(Nc4c(F)cc(F)cc4F)n([C@H]4CCOC4)c3n2)CC1", "values": [
      {"measurement": "% of control", "setting": "[9]", "result": 0, "unit": "%"}
    ]},
    {"smiles": "CN(C)C/C=C/C(=O)Nc1ccc(C(=O)N2CCCC(Nc3ncc(Cl)c(-c4c[nH]c5ccccc45)n3)C2)cc1", "note": "(stereo not drawn)", "values": [
      {"measurement": "% of control", "setting": "[10]", "result": 93, "unit": "%"}
    ]}
  ]
}
